{"source": "patent US20240001155A1", "about": "“REVERSAL OF CELLULAR SENESCENCE BY TREATMENT WITH LOW FREQUENCY ULTRASOUND” (Mechanobiologics, Inc., priority 2022, published 2024)", "key": {"platelet": {"test_system": "platelet", "conditions": "risk of causing thrombocytopenia; cited from earlier work"}, "Vero cells [1]": {"test_system": "Vero cells", "assay": "Proliferation (growth rate, fold change in cell number) of cells after senescence induction", "format": "cell-based, African monkey", "conditions": "senescence induced by the agent; 48 hours of incubation; control cells approximately eight-fold change; FIG. 1B", "procedure": "(§1) Vero cells were treated with the stressors including 200 μM H2O2, 4 mM of sodium butyrate (SB) or 25 μM of bleomycin sulphate (BS) and incubated for 36-48 hours. After washing with PBS and then replacing growth medium with fresh medium, cells were incubated for four days to confirm the growth arrest of senescent cells. […] Four criteria were used to determine if cells were senescent; (1) cell cycle arrest by determining the growth rate, (2) Increase in cell spread area, (3) development of senescence associated secretory phonotype (SASP) in culture medium, and (4) beta-gal staining. Images of cells were captured with an Evos microscope at 10× magnification after treatment and 48 hours post treatment.\nTo measure growth by the increase in cell number, 15 random images were captured, then the average number of cells were determined, which was divided by the area of one frame to get the cell density (cells/cm^2). Then this seeding density was multiplied by the total area of the dish or well to obtain the total number of cells after ultrasound (US) treatment and after 48 hours of incubation. The total number of cells at 48 hours was divided by the total number of cells just after the treatment to determine the growth rate. A ratio was one would be an indication of no growth."}, "Vero cells [2]": {"test_system": "Vero cells", "assay": "Cell spread area after senescence induction", "format": "cell-based, African monkey", "conditions": "senescence induced by the agent, compared to normal control cells; FIG. 1C", "procedure": "as §1\nSenescence was detected by the beta-galactosidase senescence staining kit as per manufacturer's protocol. Briefly, sub confluent senescent cells were stained by the SA-beta galactosidase (β-gal) staining solution and incubated overnight at 37° C. The β-gal-stained cells appeared blue and were senescent cells. The percentages of β-gal positive cells were determined by counting the number of blue cells and dividing by the total number of cells. Cell spread area was determined by capturing the mages of cells with a 10× objective using an Evos microscope. Then, ImageJ software was used to calculate spread area by manually encircling the cell periphery of each cell. A minimum of 150 cells was used for the analysis. To determine the SASP activity, the senescent cells were cultured for one to three days and then supernatant was collected from each dish. This supernatant was used to culture normal cells. Development of a senescence phenotype by the normal cells in supernatant medium confirmed that senescent cells were secreting SASP."}, "Sirtuin1": {"test_system": "Sirtuin1", "assay": "LFU rejuvenation of senescent cells in presence of Sirtuin1 inhibitor", "format": "cell-based, Human", "conditions": "HFF cells with ultrasound treatment in presence of drug; FIG. 7", "procedure": "Passage 15-24 HFF cells were treated with ultrasound at the optimized frequency, power and duty cycle. Cell proliferation was determined by counting the number of cells at the time of seeding and 48 hours after ultrasound (US) treatment. […] In the case of P24 HFF cells, they were treated with ultrasound and incubated for 96 hours prior to trypsinization, reseeding and incubation for 48 hours. Proliferation and morphology were measured after 48 hours of incubation.\nFIG. 7A is a schematic of resveratrol and EX-527 treatment, followed by ultrasound treatment and medium change. FIG. 7B is a bar graph comparing the fold change in cell number of untreated control HFF cells in presence of EX-527.\nFIG. 7C is a bar graph comparing the fold change in cell number of treated P19 cells in the presence of drug. FIG. 7D is a set of images comparing the immunofluorescence staining of Sirt1 in untreated and US treated HFF cells. FIG. 7E is bar graph comparing the sirt1 expression by intensity ratio of sirt1 and DAPI. Results are shown as mean±S.D. **p value <0.02 and ‘non-significant’ p value >0.05."}}, "data": [{"compound": "CC1(C)CCC(c2ccc(Cl)cc2)=C(CN2CCN(c3ccc(C(=O)NS(=O)(=O)c4ccc(N[C@H](CCN5CCOCC5)CSc5ccccc5)c(S(=O)(=O)C(F)(F)F)c4)cc3)CC2)C1", "note": "[ABT263]", "values": [{"measurement": "toxicity", "setting": "platelet", "value": "dose-limiting platelet toxicity"}]}, {"compound": "COc1cccc2c1C(=O)c1c(O)c3c(c(O)c1C2=O)C[C@@](O)(C(=O)CO)C[C@@H]3O[C@H]1C[C@H](N)[C@H](O)[C@H](C)O1", "note": "[Doxorubicin]", "values": [{"measurement": "proliferation (fold change)", "setting": "Vero cells [1]", "value": "non proliferative"}, {"measurement": "spread area", "setting": "Vero cells [2]", "value": "enlarged"}]}, {"compound": "NC(=O)C1CCCc2c1[nH]c1ccc(Cl)cc21", "note": "(stereo not shown) [EX-527]", "values": [{"measurement": "LFU rejuvenation of senescent cells", "setting": "Sirtuin1", "value": "blocked"}]}, {"compound": "OO", "note": "[H2O2, hydrogen peroxide]", "values": [{"measurement": "proliferation (fold change)", "setting": "Vero cells [1]", "value": "non proliferative"}, {"measurement": "spread area", "setting": "Vero cells [2]", "value": "enlarged"}]}, {"compound": "CCCC(=O)[O-].[Na+]", "note": "[sodium butyrate]", "values": [{"measurement": "proliferation (fold change)", "setting": "Vero cells [1]", "value": "non proliferative"}, {"measurement": "spread area", "setting": "Vero cells [2]", "value": "enlarged"}]}, {"compound": "Bleomycin Sulphate", "values": [{"measurement": "proliferation (fold change)", "setting": "Vero cells [1]", "value": "non proliferative"}, {"measurement": "spread area", "setting": "Vero cells [2]", "value": "enlarged"}]}]}
